The values below come from patent US6204293A, “Inhibitors of protein isoprenyl transferases” (University of Pittsburgh, priority 1998, dated 2001).

Structures can show the parent of a compound that is named as a salt. Where two headings read alike, the source gives them in different places.

In this assay the target is T1, Rat brain protein farnesyltransferase (Rattus norvegicus, UniProt Q02293+Q04631).
T1 construct: Rat brain protein farnesyltransferase activity is measured; from tissue; host or cells: rat brain
Description: % inhibition of farnesylation, scintillation proximity assay with biotin-K Ras B fragment. It counts as biochemical. The conditions noted are these: for inhibition at 1 µM: read-out: % inhibition at 1 × 10^-6 M; for inhibition at 0.1 µM: read-out: % inhibition at 1 × 10^-7 M; for inhibition at 0.01 µM: read-out: % inhibition at 1 × 10^-8 M. In outline:
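Rat brain enzyme, purified through three steps, in a scintillation proximity assay kit with biotin-K Ras B fragment substrate at 0.1 mM final. Value is % inhibition of farnesylation.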

T1 sequence (Q02293 whole entry, one chain of several): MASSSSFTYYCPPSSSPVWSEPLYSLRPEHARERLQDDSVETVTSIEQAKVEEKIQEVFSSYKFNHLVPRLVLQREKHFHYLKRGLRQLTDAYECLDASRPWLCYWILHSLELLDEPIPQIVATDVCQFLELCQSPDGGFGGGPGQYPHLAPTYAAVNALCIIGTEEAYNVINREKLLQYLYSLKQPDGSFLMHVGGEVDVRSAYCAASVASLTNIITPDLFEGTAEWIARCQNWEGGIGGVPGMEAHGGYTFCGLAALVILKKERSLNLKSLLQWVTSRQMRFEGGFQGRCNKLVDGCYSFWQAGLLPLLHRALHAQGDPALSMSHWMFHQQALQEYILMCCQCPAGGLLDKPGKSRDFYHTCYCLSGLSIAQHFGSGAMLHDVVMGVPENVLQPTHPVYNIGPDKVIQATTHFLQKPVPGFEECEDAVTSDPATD

Turning to `CSCC[C@H](NC(=O)c1ccc(CNc2ccc(N3CCOCC3)cc2)cc1-c1ccccc1C)C(=O)O` [Example 863], the “% inhibition at 1 × 10^-7 M” value (Table 3, 1 × 10^-7 M) was 72%.

Regarding `CSCC[C@H](NC(=O)c1ccc(CNc2ccc(Oc3ccccc3)cc2)cc1-c1ccccc1C)C(=O)O` [Example 864], the “% inhibition at 1 × 10^-7 M” value (Table 3, 1 × 10^-7 M) was determined as 84%.

`CSCC[C@H](NC(=O)c1ccc(CN2CCN(C(=O)OC(C)(C)C)CC2)cc1-c1ccccc1C)C(=O)O` [Example 866]: the “% inhibition at 1 × 10^-6 M” value (Table 2, 1 × 10^-6 M) was determined as 62%. As for `CSCC[C@H](NC(=O)c1ccc(CN2CCN(c3ccccc3)CC2)cc1-c1ccccc1C)C(=O)O` [Example 867], the “% inhibition at 1 × 10^-6 M” value (Table 2, 1 × 10^-6 M) was found to be 71%. Turning to `CSCC[C@H](NC(=O)c1ccc(COCc2ccc(-c3ccc(F)cc3)o2)cc1-c1cccc2ccccc12)C(=O)O` [Example 868, N-[4-(5-(4-fluorophenyl)furan-2-ylmethoxymethyl)-2-naphth-1-ylbenzoyl]methionine lithium salt], the inhibition at 1 µM is 89%. For `CSCC[C@H](NC(=O)c1ccc(COCc2ccc(-c3ccc(F)cc3)o2)cc1-c1ccc(F)cc1Cl)C(=O)O` [Example 869, N-[4-(5-(4-fluorophenyl)furan-2-ylmethoxymethyl)-2-(2-chloro-4-fluorophenyl)benzoyl]methionine lithium salt], the inhibition at 0.1 µM was 92%.

`CSCC[C@H](NC(=O)c1ccc(COCc2ccc(-c3ccc(F)cc3)o2)cc1-c1ccccc1C(F)(F)F)C(=O)O` [Example 872, N-[4-(5-(4-fluorophenyl)furan-2-ylmethoxymethyl)-2-(2-trifluoromethylphenyl)benzoyl]methionine Lithium salt]: the inhibition at 1 µM (Table 2, 1 × 10^-6 M) was 74%.

For `CSCC[C@H](NC(=O)c1ccc(CN(Cc2cncs2)S(=O)(=O)c2ccc(C)cc2)cc1-c1ccccc1C)C(=O)O` [Example 877], under “Table 4, 1 × 10^-8 M”, the “% inhibition at 1 × 10^-8 M” value came to 68%. For `CSCC[C@H](NC(=O)c1ccc(CN(Cc2cncs2)S(C)(=O)=O)cc1-c1ccccc1C)C(=O)O` [Example 878], the “% inhibition at 1 × 10^-6 M” value (Table 2, 1 × 10^-6 M) is on record as 95%. In the case of `CSCC[C@H](NC(=O)c1ccc(OCCCc2ccccc2)cc1-c1ccccc1C)C(=O)O` [Example 879, N-[4-(3-phenylpropoxy)-2-(2-methylphenyl)benzoyl]methionine, lithium salt], the inhibition at 1 µM amounted to 95%. For `CSCC[C@H](NC(=O)c1ccc(CN(CCC2CCCCC2)C2CC2)cc1-c1ccccc1C)C(=O)O` [Example 880], under “Table 4, 1 × 10^-8 M”, the “% inhibition at 1 × 10^-8 M” value is reported as 95%.

For the compound `CSCC[C@H](NC(=O)c1ccc(CN(Cc2cncs2)C2CCSCC2)cc1-c1ccccc1C)C(=O)O` [Example 881], the “% inhibition at 1 × 10^-8 M” value (Table 4, 1 × 10^-8 M) is 69%. For `CSCC[C@H](NC(=O)c1ccc(CO[C@H](CSC)CC2CCCCC2)cc1-c1ccccc1C)C(=O)O` [Example 882, N-[4-(3-Cyclohexyl-1-methylthiopropan-2-yl)oxymethyl-2-(2-methylphenyl)benzoyl]methionine lithium salt], the inhibition at 0.01 µM (Table 4, 1 × 10^-8 M) worked out at 79%. Still for that read-out and setting: as for `CSCC[C@H](NC(=O)c1ccc(CO[C@H](CSC(C)(C)C)CC2CCCCC2)cc1-c1ccccc1C)C(=O)O` [Example 883, N-[4-(3-Cyclohexyl-1-t-butylthiopropan-2-yl)oxymethyl-2-(2-methylphenyl)benzoyl]methionine lithium salt], the figure is 91%; as for `CSCC[C@H](NC(=O)c1ccc(CO[C@H](CSc2ccccc2)CC2CCCCC2)cc1-c1ccccc1C)C(=O)O` [Example 884, N-[4-(3-Cyclohexyl-1-phenylthiopropan-2-yl)oxymethyl-2-(2-methylphenyl)benzoyl]methionine lithium salt], 94%; as for `CSCC[C@H](NC(=O)c1ccc(CO[C@@H](CC2CCCCC2)CN2CCOCC2)cc1-c1ccccc1C)C(=O)O` [Example 885, N-[4-(3-Cyclohexyl-1-morpholin-4-ylpropan-2-yl)oxymethyl-2-(2-methylphenyl)benzoyl]methionine trifluoroacetate salt], 95%. Regarding `CSCC[C@H](NC(=O)c1ccc(CN(C(=O)OC(C)(C)C)C(CC2CCCCC2)CC2CCCCC2)cc1-c1ccccc1C)C(=O)O` [Example 886], where the note is “Table 2, 1 × 10^-6 M”, the “% inhibition at 1 × 10^-6 M” value is reported as 35%. For `CSCC[C@H](NC(=O)c1ccc(CN[C@@H](CC2CCCCC2)C(=O)N2CCCCC2)cc1-c1ccccc1C)C(=O)O` [Example 887], the “% inhibition at 1 × 10^-8 M” value (Table 4, 1 × 10^-8 M) is reported as 92%.

Consider `CSCC[C@H](NC(=O)c1ccc(CON=C(Cc2ccccc2)Cc2ccccc2)cc1-c1ccccc1C)C(=O)O` [Example 888], for which the “% inhibition at 1 × 10^-8 M” value (Table 4, 1 × 10^-8 M) stood at 86%. For the compound `CSCC[C@H](NC(=O)c1ccc(COCC(CC2CCCCC2)CC2CCCCC2)cc1-c1ccccc1C)C(=O)O` [Example 889, lithium salt], where the note is “Table 2, 1 × 10^-6 M”, the inhibition at 1 µM is 95%. On to `CSCC[C@H](NC(=O)c1ccc(COCc2cnco2)cc1-c1ccccc1C)C(=O)O` [Example 891, N-[4-(oxazol-5-ylmethoxymethyl)-2-(2-methylphenyl)benzoyl]methionine lithium salt], for which the inhibition at 0.1 µM is 94%. Regarding `CSCC[C@H](NC(=O)c1ccc(COCc2cnc(-c3ccccc3Cl)o2)cc1-c1ccccc1C)C(=O)O` [Example 892, N-[4-(2-(2-chlorophenyl)oxazol-5-ylmethoxymethyl)-2-(2-methylphenyl)benzoyl]methionine lithium salt], the inhibition at 0.01 µM stood at 59%. Take `CSCC[C@H](NC(=O)c1ccc(COCc2cnc(-c3cccc(Cl)c3)o2)cc1-c1ccccc1C)C(=O)O` [Example 893, N-[4-(2-(3-chlorophenyl)oxazol-5-ylmethoxymethyl)-2-(2-methylphenyl)benzoyl]methionine lithium salt]: the inhibition at 0.1 µM worked out at 87%.

Take `CSCC[C@H](NC(=O)c1ccc(COCc2cnc(-c3ccc(Cl)cc3)o2)cc1-c1ccccc1C)C(=O)O` [Example 894, N-[4-(2-(4-chlorophenyl)oxazol-5-ylmethoxymethyl)-2-(2-methylphenyl)benzoyl]methionine lithium salt]: the inhibition at 0.1 µM turned out to be 89%. With `CSCC[C@H](NC(=O)c1ccc(COCc2cnc(C(C)(C)C)s2)cc1-c1ccccc1C)C(=O)O` [Example 895, N-[4-(2-t-butylthiazol-5-ylmethoxymethyl)-2-(2-methylphenyl)benzoyl]methionine lithium salt], the inhibition at 0.1 µM stood at 92%.

For `COc1ncc(COCc2ccc(C(=O)N[C@@H](CCSC)C(=O)O)c(-c3ccccc3C)c2)s1` [Example 896, N-[4-(2-methoxythiazol-5-ylmethoxymethyl)-2-(2-methylphenylbenzoyl]methioninelithium salt], the inhibition at 0.1 µM (Table 3, 1 × 10^-7 M) is 96%. Regarding `CSCC[C@H](NC(=O)c1ccc(COCc2cnc(-c3ccccc3Cl)s2)cc1-c1ccccc1C)C(=O)O` [Example 897, N-[4-(2-(2-chlorophenyl)thiazol-5-ylmethoxymethyl)-2-(2-methylphenyl)benzoyl]methionine lithium salt], the inhibition at 0.01 µM came out at 76%. Same read-out and setting: as for `CSCC[C@H](NC(=O)c1ccc(COCc2cnc(-c3cccc(F)c3)s2)cc1-c1ccccc1C)C(=O)O` [Example 898, N-[4-(2-(3-fluorophenyl)thiazol-5-ylmethoxymethyl)-2-(2-methylphenyl)benzoyl]methionine lithium salt], the figure is 82%; as for `CSCC[C@H](NC(=O)c1ccc(COCc2cnc(-c3cccc(Cl)c3)s2)cc1-c1ccccc1C)C(=O)O` [Example 899, N-[4-(2-(3-chlorophenyl)thiazol-5-ylmethoxymethyl)-2-(2-methylphenyl)benzoyl]methionine lithium salt], 88%.

Take `CSCC[C@H](NC(=O)c1ccc(COCc2cnc(-c3ccc(F)cc3)s2)cc1-c1ccccc1C)C(=O)O` [Example 900, N-[4-(2-(4-fluorophenylthiazol-5-ylmethoxymethyl)-2-(2-methylphenyl)benzoyl]methioninelithium salt]: where the note is “Table 3, 1 × 10^-7 M”, the inhibition at 0.1 µM was 95%. For `CSCC[C@H](NC(=O)c1ccc(COCc2cnc(-c3ccc(Cl)cc3)s2)cc1-c1ccccc1C)C(=O)O` [Example 901, N-[4-(2-(4-chlorophenyl)thiazol-5-ylmethoxymethyl)-2-(2-methylphenyl)benzoyl]methionine lithium salt], the inhibition at 0.01 µM turned out to be 84%. For `CSCC[C@H](NC(=O)c1ccc(NC(=O)OCc2cncs2)cc1-c1ccccc1C)C(=O)O` [Example 902], the “% inhibition at 1 × 10^-6 M” value (Table 2, 1 × 10^-6 M) amounted to 85%. In the case of `CSCC[C@H](NC(=O)c1ccc(COCc2cc(-c3ccc(Cl)cc3)co2)cc1-c1ccccc1C)C(=O)O` [Example 904, N-[4-(4-(4-chlorophenyl)furan-2-ylmethoxymethyl)-2-(2-methylphenyl)benzoyl]methionine lithium salt], the inhibition at 0.01 µM is 85%. For the compound `CCSC[C@H](CC(C)C)NCc1ccc(C(=O)N[C@@H](CCSC)C(=O)O)c(-c2ccccc2C)c1` [Example 905], the “% inhibition at 1 × 10^-8 M” value (Table 4, 1 × 10^-8 M) stood at 86%. `CCSC[C@H](CC(C)C)N(C)Cc1ccc(C(=O)N[C@@H](CCSC)C(=O)O)c(-c2ccccc2C)c1` [Example 906]: the “% inhibition at 1 × 10^-7 M” value (Table 3, 1 × 10^-7 M) was found to be 88%. `CSCC[C@H](NC(=O)c1ccc(CN(C)C(CC2CCCCC2)CC2CCCCC2)cc1-c1ccccc1C)C(=O)O` [Example 907]: under “Table 4, 1 × 10^-8 M”, the “% inhibition at 1 × 10^-8 M” value is on record as 79%. In the case of `CSCC[C@H](NC(=O)c1ccc(CN(CC(C)C)C(CC2CCCCC2)CC2CCCCC2)cc1-c1ccccc1C)C(=O)O` [Example 908], under “Table 2, 1 × 10^-6 M”, the “% inhibition at 1 × 10^-6 M” value is on record as 88%. For `CSCC[C@H](NC(=O)c1ccc(CN(C(C)=O)C(CC2CCCCC2)CC2CCCCC2)cc1-c1ccccc1C)C(=O)O` [Example 909], the “% inhibition at 1 × 10^-8 M” value (Table 4, 1 × 10^-8 M) stood at 79%. Take `CSCC[C@H](NC(=O)c1ccc(CN(C(=O)c2ccccc2)C(CC2CCCCC2)CC2CCCCC2)cc1-c1ccccc1C)C(=O)O` [Example 910]: the “% inhibition at 1 × 10^-6 M” value (Table 2, 1 × 10^-6 M) is listed as 42%.

As usually defined, the % inhibition is the share of the control response that was lost under treatment. A high value points to strong suppression. The inhibition is the change of the read-out against control, counted positive when it falls.
